Earlier results on 1 molecule are cited in patent US9096579B2, “Amino-indolyl-substituted imidazolyl-pyrimidines and their use as medicaments” (Boehringer Ingelheim International GmbH, priority 2012, dated 2015).

The test system of series [1] is platelet counts in patients with ITP. Particulars: single center open label study.
Series [2] deals with atherosclerotic plaque size. The conditions noted are these: murine model of atherosclerosis.

For the molecule `COc1cc(Nc2ncc(F)c(Nc3ccc4c(n3)N(COP(=O)(O)O)C(=O)C(C)(C)O4)n2)cc(OC)c1OC` [R788 (R406)], the platelet counts result in series [1] is recorded as “improved platelet counts”. Also, the atherosclerotic plaque size entry in series [2] is “reduced atherosclerotic plaque size”.
